Measured values taken from article PMC7997411, “Discovery and Optimization of Selective Inhibitors of Meprin α (Part II)” (Pharmaceuticals, 2021).
Several values for one entry are separate records, joined by “and”; a condition that tells them apart may be missing. Identical values can stand only once. Like-named read-outs stand apart in the source and are kept apart here.

Legend:
ADAM10 = target: T1, ADAM10 (Homo sapiens, UniProt O14672); settings: single value given, at 10 μM ref 11; cited from earlier work
T1 construct: purchased R&D Systems 936-AD
T1 sequence (O14672 214-748): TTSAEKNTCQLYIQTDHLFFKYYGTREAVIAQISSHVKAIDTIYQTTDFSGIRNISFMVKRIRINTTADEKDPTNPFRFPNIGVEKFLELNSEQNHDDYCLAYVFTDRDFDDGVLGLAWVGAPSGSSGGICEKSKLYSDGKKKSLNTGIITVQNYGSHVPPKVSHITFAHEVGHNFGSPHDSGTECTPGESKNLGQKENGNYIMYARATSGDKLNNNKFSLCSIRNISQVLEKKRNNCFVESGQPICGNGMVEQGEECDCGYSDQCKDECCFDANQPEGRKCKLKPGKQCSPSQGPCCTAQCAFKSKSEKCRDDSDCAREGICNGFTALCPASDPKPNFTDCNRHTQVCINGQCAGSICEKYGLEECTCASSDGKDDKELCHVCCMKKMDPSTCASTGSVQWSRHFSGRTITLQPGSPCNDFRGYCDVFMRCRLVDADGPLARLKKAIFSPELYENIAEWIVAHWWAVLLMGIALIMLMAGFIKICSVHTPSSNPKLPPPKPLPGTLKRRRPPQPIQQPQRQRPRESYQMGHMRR

MMP13 = target: T2, MMP13 (Homo sapiens, UniProt P45452); settings: single value given, at 10 μM ref 11; cited from earlier work
T2 construct: purchased R&D Systems 511-MM

MMP2 = target: T3, MMP2 (Homo sapiens, UniProt P08253); settings: single value given, at 10 μM ref 11; cited from earlier work
T3 construct: purchased R&D Systems 902-MP
T3 sequence (P08253 110-660): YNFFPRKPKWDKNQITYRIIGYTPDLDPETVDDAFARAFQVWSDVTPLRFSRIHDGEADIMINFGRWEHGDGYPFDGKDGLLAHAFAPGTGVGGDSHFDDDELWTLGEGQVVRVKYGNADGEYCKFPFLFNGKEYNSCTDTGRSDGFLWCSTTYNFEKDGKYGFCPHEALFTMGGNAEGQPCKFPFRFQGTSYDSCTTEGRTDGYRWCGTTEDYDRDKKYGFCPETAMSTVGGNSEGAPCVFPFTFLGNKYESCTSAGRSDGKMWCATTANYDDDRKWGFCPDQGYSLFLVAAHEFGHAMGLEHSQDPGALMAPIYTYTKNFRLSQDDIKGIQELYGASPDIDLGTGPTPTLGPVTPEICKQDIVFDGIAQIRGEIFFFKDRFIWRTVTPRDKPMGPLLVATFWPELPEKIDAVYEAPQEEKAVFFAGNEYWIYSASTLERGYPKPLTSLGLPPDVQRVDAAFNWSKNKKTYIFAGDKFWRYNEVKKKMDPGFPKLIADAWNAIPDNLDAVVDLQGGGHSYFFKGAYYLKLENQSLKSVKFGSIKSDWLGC

MMP9 = target: T4, MMP9 (Homo sapiens, UniProt P14780); settings: single value given, at 10 μM ref 11; cited from earlier work
T4 construct: purchased R&D Systems 911-MP
T4 sequence (P14780 94-707): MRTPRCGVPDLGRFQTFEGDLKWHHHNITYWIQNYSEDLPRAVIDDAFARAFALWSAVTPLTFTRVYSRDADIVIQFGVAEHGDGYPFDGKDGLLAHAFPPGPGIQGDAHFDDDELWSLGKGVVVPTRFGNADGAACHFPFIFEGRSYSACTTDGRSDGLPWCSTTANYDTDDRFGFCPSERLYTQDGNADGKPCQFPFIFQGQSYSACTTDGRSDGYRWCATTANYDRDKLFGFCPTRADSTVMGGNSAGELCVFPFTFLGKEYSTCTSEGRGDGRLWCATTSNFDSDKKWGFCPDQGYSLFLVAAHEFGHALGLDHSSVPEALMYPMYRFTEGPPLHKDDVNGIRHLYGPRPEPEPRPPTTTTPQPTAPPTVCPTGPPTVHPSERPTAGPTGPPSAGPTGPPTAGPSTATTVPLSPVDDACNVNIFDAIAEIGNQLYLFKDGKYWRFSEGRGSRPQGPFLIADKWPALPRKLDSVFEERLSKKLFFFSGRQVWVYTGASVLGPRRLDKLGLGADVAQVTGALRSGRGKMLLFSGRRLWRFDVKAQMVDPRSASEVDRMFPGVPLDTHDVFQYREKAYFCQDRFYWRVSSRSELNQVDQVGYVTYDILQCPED

Meprin α [1] = settings: cited from earlier work
ADAM17 = target: T5, ADAM17 (Homo sapiens, UniProt P78536); settings: single value given, at 10 μM ref 11; cited from earlier work
T5 construct: purchased R&D Systems 930-ADB
T5 sequence (P78536 215-824): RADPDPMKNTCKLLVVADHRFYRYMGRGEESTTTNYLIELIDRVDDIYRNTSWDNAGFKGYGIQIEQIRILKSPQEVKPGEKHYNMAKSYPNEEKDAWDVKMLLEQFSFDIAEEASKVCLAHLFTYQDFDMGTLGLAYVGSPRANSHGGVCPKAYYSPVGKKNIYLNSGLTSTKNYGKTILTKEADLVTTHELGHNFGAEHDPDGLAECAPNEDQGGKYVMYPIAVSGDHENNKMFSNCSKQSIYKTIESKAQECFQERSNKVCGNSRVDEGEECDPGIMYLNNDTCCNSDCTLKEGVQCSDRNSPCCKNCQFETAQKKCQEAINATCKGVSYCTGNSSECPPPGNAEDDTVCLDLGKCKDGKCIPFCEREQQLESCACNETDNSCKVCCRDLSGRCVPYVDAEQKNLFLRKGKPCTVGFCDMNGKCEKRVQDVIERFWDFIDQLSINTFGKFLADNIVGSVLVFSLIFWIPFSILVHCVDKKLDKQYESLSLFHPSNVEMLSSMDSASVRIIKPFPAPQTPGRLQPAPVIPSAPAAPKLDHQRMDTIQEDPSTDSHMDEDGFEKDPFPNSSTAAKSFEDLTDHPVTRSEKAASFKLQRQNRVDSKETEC

Meprin β = settings: cited from earlier work
human meprin β = target: T6, human meprin β (Homo sapiens, UniProt Q16820); test: Meprin β assay in a 384-well plate (fluorogenic substrate Mca-EDEDED-K(Dnp)); format: biochemical
T6 construct: His-tag; made in house; host or cells: BTI-TN-5B1-4 insect cells (baculovirus, amplified in Sf9)
T6 sequence (Q16820 62-701): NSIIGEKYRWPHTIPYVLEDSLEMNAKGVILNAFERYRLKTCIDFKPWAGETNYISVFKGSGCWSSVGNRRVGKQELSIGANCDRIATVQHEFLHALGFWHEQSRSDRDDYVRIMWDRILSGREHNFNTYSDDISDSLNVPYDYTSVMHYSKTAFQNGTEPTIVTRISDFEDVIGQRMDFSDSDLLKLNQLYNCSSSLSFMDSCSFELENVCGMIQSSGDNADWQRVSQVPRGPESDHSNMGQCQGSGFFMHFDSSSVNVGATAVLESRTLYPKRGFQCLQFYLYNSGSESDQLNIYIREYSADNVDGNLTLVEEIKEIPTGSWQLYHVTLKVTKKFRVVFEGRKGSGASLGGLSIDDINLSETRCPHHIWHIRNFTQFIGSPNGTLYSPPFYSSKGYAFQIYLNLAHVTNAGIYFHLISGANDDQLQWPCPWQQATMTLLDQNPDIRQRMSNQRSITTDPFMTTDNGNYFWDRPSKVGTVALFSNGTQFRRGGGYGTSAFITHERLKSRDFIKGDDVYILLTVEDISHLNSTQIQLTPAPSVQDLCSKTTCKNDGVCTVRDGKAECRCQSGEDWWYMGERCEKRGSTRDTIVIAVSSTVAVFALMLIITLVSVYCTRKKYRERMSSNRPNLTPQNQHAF
Method: (§1) Recombinant human meprin α and meprin β were expressed using the Bac-to-Bac expression system (Gibco Life Technologies, Paisley, UK) as described before. Media and supplements were obtained from Gibco Life Technologies. Recombinant Baculoviruses were amplified in adherently growing Spodoptera frugiperda (Sf)9 insect cells at 27 °C in Grace’s insect medium supplemented with 10% fetal bovine serum, 50 units/mL penicillin, and 50 μg/mL streptomycin. Protein expression was performed in 500 mL suspension cultures of BTI-TN-5B1-4 insect cells growing in Express Five SFM supplemented with 4 mM glutamine, 50 units/mL penicillin, and 50 μg/mL streptomycin in Fernbach-flasks using a Multitron orbital shaker (INFORS AG, Bottmingen, Switzerland). Cells were infected at a density of 2 × 10^6 cells/mL with an amplified viral stock at a MOI of ~10. […] Meprins were activated by trypsin, which was removed afterwards by affinity chromatography using a column containing immobilized chicken ovomucoid, a trypsin inhibitor.
(§2) Both assays followed the same general protocol. […] After 30 min incubation at RT, the reactions were started by addition of 5 µL of 2× solutions of substrates (20 µM, meprin α Mca-YVADAPK-K(Dnp), and for meprin β Mca-EDEDED-K(Dnp)).

meprin α [2] = target: T7, meprin α (Homo sapiens, UniProt Q16819); test: Meprin α assay in a 384-well plate (fluorogenic substrate Mca-YVADAPK-K(Dnp)); format: biochemical
T7 construct: Strep-tag; made in house; host or cells: BTI-TN-5B1-4 insect cells (baculovirus, amplified in Sf9)
T7 sequence (Q16819 66-746): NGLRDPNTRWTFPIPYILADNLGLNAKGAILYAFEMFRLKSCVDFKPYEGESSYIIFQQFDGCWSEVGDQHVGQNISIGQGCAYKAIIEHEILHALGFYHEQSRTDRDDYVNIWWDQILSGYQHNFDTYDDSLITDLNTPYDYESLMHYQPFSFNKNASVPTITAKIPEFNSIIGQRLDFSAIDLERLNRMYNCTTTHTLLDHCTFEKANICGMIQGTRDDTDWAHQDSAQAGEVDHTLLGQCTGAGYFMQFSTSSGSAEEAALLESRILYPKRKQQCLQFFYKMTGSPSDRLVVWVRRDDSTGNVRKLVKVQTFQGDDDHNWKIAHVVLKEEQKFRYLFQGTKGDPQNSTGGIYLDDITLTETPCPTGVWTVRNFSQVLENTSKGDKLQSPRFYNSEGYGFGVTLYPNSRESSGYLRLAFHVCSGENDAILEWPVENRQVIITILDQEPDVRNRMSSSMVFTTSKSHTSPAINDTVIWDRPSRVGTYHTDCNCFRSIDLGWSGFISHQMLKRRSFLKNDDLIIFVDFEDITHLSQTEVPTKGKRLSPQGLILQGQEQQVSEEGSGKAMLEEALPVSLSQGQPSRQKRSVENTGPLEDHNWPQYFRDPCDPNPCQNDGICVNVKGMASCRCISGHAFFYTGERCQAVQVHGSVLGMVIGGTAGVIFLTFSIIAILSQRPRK
Method: as §1, §2

Row | Compound | IC50 (human meprin β; triplicate, ± SD) [µM] | IC50 (meprin α [2]; triplicate, ± SD) | other results
1 | O=C(CN(Cc1ccc(Cl)c(O)c1F)Cc1ccc(Cl)c(O)c1F)NO [1c] | – | – | ADAM10 % activity remaining (ADAM10): 86%; MMP13 % activity remaining (MMP13): 86%; MMP2 % activity remaining (MMP2): 95%; MMP9 % activity remaining (MMP9): 91%; IC50 (Meprin α [1]): 0.19 ± 0.001 µM; ADAM17 % activity remaining (ADAM17): 86%
2 | O=C(Cc1c(-c2ccccc2)noc1-c1ccccc1)NO [2c] | – | – | IC50 (Meprin β): 0.813 ± 0.001 µM; ADAM10 % activity remaining (ADAM10): 80%; MMP13 % activity remaining (MMP13): 80%; MMP2 % activity remaining (MMP2): 87%; MMP9 % activity remaining (MMP9): 86%; IC50 (Meprin α [1]): 0.004 ± 0.001 µM; ADAM17 % activity remaining (ADAM17): 62%
3 | O=C(CSc1nnc(NC(=O)COc2ccccc2)s1)NO [SR19848] | – | – | IC50 (human meprin β): 0.329 µM; IC50 (meprin α [2]): 0.217 µM; meprin α/β selectivity (in words) (meprin α [2]; Figure 1): no meprin α/β selectivity
4 | COc1cc(OC)nc(SCc2nnc(SCC(=O)NO)n2-c2cccc(C)c2)n1 [SR24467, 2-((5-(((4,6-dimethoxypyrimidin-2-yl)thio)methyl)-4-(m-tolyl)-4H-1,2,4-triazol-3-yl)thio)-N-hydroxyacetamide] | > 100 | 2 µM and 10.3 µM | –
5 | COc1cc(OC)nc(SCc2nnc(SCC(=O)NO)n2-c2cccnc2)n1 [SR24718, 2-((5-(((4,6-dimethoxypyrimidin-2-yl)thio)methyl)-4-(pyridin-3-yl)-4H-1,2,4-triazol-3-yl)thio)-N-hydroxyacetamide] | > 100 | 10.1 ± 2.3 µM | –
6 | COc1cc(OC)nc(SCc2nnc(SCC(=O)NO)n2-c2ccc(N3CCOCC3)cc2)n1 [SR26466, 2-((5-(((4,6-dimethoxypyrimidin-2-yl)thio)methyl)-4-(4-morpholinophenyl)-4H-1,2,4-triazol-3-yl)thio)-N-hydroxyacetamide] | > 100 | 1.1 ± 0.1 µM | –
7 | COc1cc(OC)nc(SCc2nnc(SCC(=O)NO)n2-c2cccc3ccccc23)n1 [SR26467, 2-((5-(((4,6-dimethoxypyrimidin-2-yl)thio)methyl)-4-(naphthalen-1-yl)-4H-1,2,4-triazol-3-yl)thio)-N-hydroxyacetamide] | > 100 | 2 ± 0.3 µM | –

Now from value to molecule, other results behind:

Row | IC50 (human meprin β; triplicate, ± SD) [µM] | IC50 (meprin α [2]; triplicate, ± SD) | Compound | other results
8 | > 100 | 5.4 ± 1.2 µM | COc1cc(OC)nc(SCc2nnc(SCC(=O)NO)n2-c2ccc(C(F)(F)F)cc2)n1 [SR24003, 2-((5-(((4,6-dimethoxypyrimidin-2-yl)thio)methyl)-4-(4-(trifluoromethyl)phenyl)-4H-1,2,4-triazol-3-yl)thio)-N-hydroxyacetamide] | –
9 | 60 ± 7 | 4.1 ± 0.8 µM | COc1ccc(-n2c(CSc3nc(C)cc(C)n3)nnc2SCC(=O)NO)cc1 [SR24139, 2-((5-(((4,6-dimethylpyrimidin-2-yl)thio)methyl)-4-(4-methoxyphenyl)-4H-1,2,4-triazol-3-yl)thio)-N-hydroxyacetamide] | –
10 | > 100 | 8.7 ± 1.1 µM | COc1ccc(-n2c(CSc3nc(OC)cc(OC)n3)nnc2SCC(=O)NO)cc1 [SR24144, 2-((5-(((4,6-dimethoxypyrimidin-2-yl)thio)methyl)-4-(4-methoxyphenyl)-4H-1,2,4-triazol-3-yl)thio)-N-hydroxyacetamide] | inhibition of meprin β at 100 μM (in words) (human meprin β; 100 μM): complete lack of inhibition
11 | 52 ± 1 | 12.1 ± 3.9 µM | COc1cc(OC)nc(SCc2nnc(SCC(=O)NO)n2-c2ccccc2OC)n1 [SR24459, 2-((5-(((4,6-dimethoxypyrimidin-2-yl)thio)methyl)-4-(2-methoxyphenyl)-4H-1,2,4-triazol-3-yl)thio)-N-hydroxyacetamide] | –
12 | 59 ± 10 | 10.3 ± 1.1 µM | COc1cccc(-n2c(CSc3nc(OC)cc(OC)n3)nnc2SCC(=O)NO)c1 [SR24460, 2-((5-(((4,6-dimethoxypyrimidin-2-yl)thio)methyl)-4-(3-methoxyphenyl)-4H-1,2,4-triazol-3-yl)thio)-N-hydroxyacetamide] | –
13 | > 100 | 11.2 ± 2.6 µM | COc1cc(OC)nc(SCc2nnc(SCC(=O)NO)n2-c2ccc(Br)cc2)n1 [SR24462, 2-((4-(4-bromophenyl)-5-(((4,6-dimethoxypyrimidin-2-yl)thio)methyl)-4H-1,2,4-triazol-3-yl)thio)-N-hydroxyacetamide] | –
14 | > 100 | 10.4 ± 2.8 µM | COc1cc(OC)nc(SCc2nnc(SCC(=O)NO)n2-c2ccc(F)cc2)n1 [SR24463, 2-((5-(((4,6-dimethoxypyrimidin-2-yl)thio)methyl)-4-(4-fluorophenyl)-4H-1,2,4-triazol-3-yl)thio)-N-hydroxyacetamide] | –
15 | 75 ± 15 | 0.6 ± 0.06 µM | CCN(CC)c1ccc(-n2c(CSc3nc(OC)cc(OC)n3)nnc2SCC(=O)NO)cc1 [SR26465, 2-((4-(4-(diethylamino)phenyl)-5-(((4,6-dimethoxypyrimidin-2-yl)thio)methyl)-4H-1,2,4-triazol-3-yl)thio)-N-hydroxyacetamide] | meprin α/β fold selectivity (ratio of IC50 values) (meprin α [2]; meprin α over meprin β): > 100 fold
